# Entries after “also recorded” stand apart in the source; their conditions may differ.
# How the values were obtained:
# [1] = tested on: beta-catenin; assay: Nuclear translocation of beta-catenin, immunohistology of fetal lung explants; format: cell-based, mouse
# Experimental: FIG. 8: Nuclear translocation of beta-catenin by Wnt3A in fetal lung explants. The translocation of beta-catenin was determined using immunohistological analysis of histological sections from fetal lung explants (E12.5), cultured for two days in the presence of Wnt3a at a concentration of 0 ng/ml (Panel A); 10 ng/ml (Panel B); 50 ng/ml (Panel C); 250 ng/ml (Panel D); 500 ng/ml (Panel E) and 1000 ng/ml (Panel F).
# The primary antibodies used for the immunohistochemical detection was for beta-catenin; anti beta-catenin IgG, mAb, clone 14 from BD-Transduction Laboratories, for tubulin-beta mAb clone TBN05 (Tub2.1) from Neomarkers, for BrdU; anti-Bromodeoxyuridine (BrdU), mAb clone ZBU30 from Zymed Laboratories Inc.
# In order to determine whether Wnt3A actually elevates the Wnt-signaling pathway in these explants, histological sections were stained for beta-catenin, the intracellular factor, which, together with members of the high mobility group (HMG) of transcription factors such as TCF1 and LEF, transducer the Wnt signal to the nucleus.
# [2] = tested on: Wnt-signaling pathway in human epithelial lung adenocarcinoma cell line Calu-3; assay: TopFlash/FopFlash reporter assay, Calu-3; format: cell-based; settings: calu-3, 20 hours
# Experimental: Primary mouse fibroblasts isolated from E12.5 lung explants, the human epithelial lung carcinoma cell line A549 cells (ATCC CCL-185), the human epithelial lung adenocarcinoma cell line Calu-3 (ATCC_HTB-55) and the normal human fetal lung fibroblast cell line HFL-1 cells (ATCC—153) were cultured in 96-well plates and transfected with the TopFlash and FopFlash reporter constructs using lipofectamine 2000 according to the manufacturer's instructions. As an internal control for transfection efficiency, a constitutive renilla luciferase reporter (Promega) was cotransfected. The cells were transfected with the above-mentioned reporter constructs and simultaneously treated with different concentrations of Wnt3A for 20 hours, after which the cells were lysed and luciferase expression was measured using a Berthold luminometer for two seconds (V. Korinek et al., Mol. Cell. Biol. 18:1248-1256, 1998). […]
# In order to analyze if Wnt3A is able to activate the Wnt signal-transduction pathway in humans, we stimulated three different cell lines from human origin with Wnt3A and measured the response with the TopFlash/FopFlash reporter assay. The three human lung-derived cell lines analyzed were the lung epithelial carcinoma cell line A549 (FIG. 9B), the normal lung fibroblast line HFL-1 (FIG. 9C), and the epithelial adenocarcinoma cell line calu-3 (FIG. 9D).
# [3] = tested on: fetal lung explants (E12.5); assay: Quantification of cell proliferation using phospho histon H3 immunohistochemistry; format: cell-based, mouse
# Experimental: The number of cells undergoing mitosis was measured using immunohistochemical detection of phosphorylated histon H3, which is present only on condensed chromosomes during mitosis. Per condition, at least four different lung explants were treated and in total, 20 sections per condition were counted for phospho histon H3-positive cells by two different investigators. The primary antibody against phopho histon H3 (Ser10, clone 6G3) was purchased from Cell Signaling Technology and used according to the recommendations of the supplier.
# To further determine the short-term effect of different Wnt3A concentrations upon the induction of proliferation, lung explants (E12.5) were cultured for one day with 0, 30, 125 and 500 ng/ml Wnt3a.
# The lung explants were processed for immunohistochemical analysis and stained for Histon H3 phosphorylation, which can be used as a quantifiable cell proliferation marker as it is present in a fixed amount on condensed chromosomes only during active cell division (material and methods). […] However, most of the increase in proliferation could be accounted to the mesenchyme, where an increase in 40 to 60% of cells undergoing […] was observed.
substance,measurement,setting,value
Wnt3a,nuclear beta-catenin,"[1]; 10-1000 ng/ml, within the first two days, mesenchymal cells around lung buds",dosage-dependent increase in nuclear beta-catenin
same,nuclear beta-catenin,"[1]; 250 and 500 ng/ml, two days",maximal; also recorded: strong induction of nuclear beta-catenin
same,nuclear beta-catenin,[1]; four- and eight-day cultures,had disappeared
same,TopFlash/FopFlash reporter response,[2],respond to Wnt3A in a dosage-dependent manner; also recorded: strong induction of the Wnt-signaling pathway
same,effect on proliferation,"[3]; 30 ng/ml, after one day",markedly increases proliferation
same,increase in overall proliferation (phospho histon H3-positive cells),"[3]; 30, 125 and 500 ng/ml, one day",> 20%
same,concentration at which the maximum stimulatory effect on proliferation was reached,[3]; one day,≤ 30 ng/mL

# From patent US20100203634A1, “Inhibition of stem cell differentiation, enhancement of proliferation and selective induction of apoptosis by Wnt factors” (DeltaCell B.V., priority 2003, published 2010)
